Test system: 168753-222-R-J1-PDC complex spheroid viability
Test: Anticancer human tumor 168753-222-R-J1-PDC patient-derived bladder carcinoma cell line growth inhibition [CLK]
Conditions: for IC50: curve of first compound; for viability, T/C: stronger effect = lower value; active means viability on the fitted dose curve at most 10% of control; inactive means the rest
How it was run: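 Patient-derived tumor cells grown as complex spheroids with HUVEC endothelial cells and mesenchymal stem cells, treated with drug combinations. Concentrations descend in half-log steps from near clinical Cmax, or from 10 microM if Cmax unknown.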

[1] = second compound 0.0316 µM, first compound 0.0316 µM
[2] = second compound 0.0316 µM, first compound 0.1 µM
[3] = second compound 0.0316 µM, first compound 0.316 µM
[4] = second compound 0.0316 µM, first compound 1 µM
[5] = second compound 0.0316 µM, first compound 3.16 µM
[6] = second compound 0.0316 µM, first compound 10 µM
[7] = second compound 0.1 µM, first compound 0.0316 µM
[8] = second compound 0.1 µM, first compound 0.1 µM
[9] = second compound 0.1 µM, first compound 0.316 µM
[10] = second compound 0.1 µM, first compound 1 µM
[11] = second compound 0.1 µM, first compound 3.16 µM
[12] = second compound 0.1 µM, first compound 10 µM
[13] = second compound 0.316 µM, first compound 0.0316 µM
[14] = second compound 0.316 µM, first compound 0.1 µM
[15] = second compound 0.316 µM, first compound 0.316 µM
[16] = second compound 0.316 µM, first compound 1 µM
[17] = second compound 0.316 µM, first compound 3.16 µM
[18] = second compound 0.316 µM, first compound 10 µM
[19] = second compound 1 µM, first compound 0.0316 µM
[20] = second compound 1 µM, first compound 0.1 µM
[21] = second compound 1 µM, first compound 0.316 µM
[22] = second compound 1 µM, first compound 1 µM
[23] = second compound 1 µM, first compound 3.16 µM
[24] = second compound 1 µM, first compound 10 µM
[25] = second compound 3.16 µM, first compound 0.0316 µM
[26] = second compound 3.16 µM, first compound 0.1 µM
[27] = second compound 3.16 µM, first compound 0.316 µM
[28] = second compound 3.16 µM, first compound 1 µM
[29] = second compound 3.16 µM, first compound 3.16 µM
[30] = second compound 3.16 µM, first compound 10 µM
[31] = second compound 10 µM, first compound 0.0316 µM
[32] = second compound 10 µM, first compound 0.1 µM
[33] = second compound 10 µM, first compound 0.316 µM
[34] = second compound 10 µM, first compound 1 µM
[35] = second compound 10 µM, first compound 3.16 µM
[36] = second compound 10 µM, first compound 10 µM
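Further: viability measured after seven days of drug exposure.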
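Wherever viability, T/C is given: luminescence signal used as surrogate for viable cell amount; 100% = DMSO vehicle control wells.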

COc1ccc([C@@H](O)c2cc(-c3ncnc4cc(N5CCOCC5)ccc34)c(F)cc2Cl)nn1 + CNC(=O)c1ccc(Nc2nc(OC3CCCC3)c3c(-c4ccc5nc(C)oc5c4)c[nH]c3n2)c(OC)c1
565 nM: IC50 (second compound 0.316 µM)
inactive: viability, T/C [1] 107% | viability, T/C [2] 94% | viability, T/C [3] 88.3% | viability, T/C [4] 67.8% | viability, T/C [5] 27% | viability, T/C [6] 15.9% | viability, T/C [7] 91.1% | viability, T/C [8] 94.5% | viability, T/C [9] 82.7% | viability, T/C [10] 69.4% | viability, T/C [11] 27.9% | viability, T/C [12] 16.8% | viability, T/C [13] 75.6% | viability, T/C [14] 78.9% | viability, T/C [15] 67.3% | viability, T/C [16] 32.5% | viability, T/C [17] 20.7% | viability, T/C [18] 13.9% | viability, T/C [19] 41.9% | viability, T/C [20] 27.2% | viability, T/C [21] 26.3% | viability, T/C [22] 18.4% | viability, T/C [23] 16.5% | viability, T/C [24] 13.5% | viability, T/C [25] 25.3% | viability, T/C [26] 23.7% | viability, T/C [27] 21.1% | viability, T/C [28] 16.6% | viability, T/C [29] 17.8% | viability, T/C [30] 15.8% | viability, T/C [31] 18.5% | viability, T/C [32] 21.5% | viability, T/C [33] 20.8% | viability, T/C [34] 15.9% | viability, T/C [35] 15.4% | viability, T/C [36] 11.3%
1620 nM: IC50 (second compound 0.0316 µM)
< 31.6 nM: IC50 (second compound 1 µM) | IC50 (second compound 3.16 µM) | IC50 (second compound 10 µM)
1690 nM: IC50 (second compound 0.1 µM)

COc1cccc2c1C(=O)c1c(O)c3c(c(O)c1C2=O)CC(O)(C(=O)CO)CC3OC1CC(N)C(O)C(C)O1 (centres undefined) + CNC(=O)c1ccc(Nc2nc(OC3CCCC3)c3c(-c4ccc5nc(C)oc5c4)c[nH]c3n2)c(OC)c1
inactive: viability, T/C [1] 83.8% | viability, T/C [2] 73.1% | viability, T/C [3] 50% | viability, T/C [4] 14.6% | viability, T/C [7] 94.5% | viability, T/C [8] 72.3% | viability, T/C [9] 49.8% | viability, T/C [10] 14.9% | viability, T/C [13] 71.9% | viability, T/C [14] 57.7% | viability, T/C [15] 33.1% | viability, T/C [16] 14.1% | viability, T/C [19] 30.2% | viability, T/C [20] 18.5% | viability, T/C [21] 15.2% | viability, T/C [22] 14.1% | viability, T/C [25] 18.4% | viability, T/C [26] 17.9% | viability, T/C [27] 13.3% | viability, T/C [31] 16% | viability, T/C [32] 16% | viability, T/C [33] 12.1%
active: viability, T/C [5] 13.7% | viability, T/C [6] 0.12% | viability, T/C [11] 15.6% | viability, T/C [12] 0.1% | viability, T/C [17] 8% | viability, T/C [18] 0.12% | viability, T/C [23] 6.77% | viability, T/C [24] 0.13% | viability, T/C [28] 12.1% | viability, T/C [29] 2.89% | viability, T/C [30] 0.14% | viability, T/C [34] 11.2% | viability, T/C [35] 0.71% | viability, T/C [36] 0.24%
266 nM: IC50 (second compound 0.1 µM)
291 nM: IC50 (second compound 0.0316 µM)
141 nM: IC50 (second compound 0.316 µM)
< 31.6 nM: IC50 (second compound 1 µM) | IC50 (second compound 3.16 µM) | IC50 (second compound 10 µM)
